Data reported in ChEMBL document CHEMBL1150610, “Diterpenoids from Isodon adenantha” (J Nat Prod, 2002).
≈ marks a conversion by molar mass, not a printed value.

Tested on: K562
Assay: Cytotoxicity against human K562 cells
Assay type: functional, cell-based

Compound | IC50 [µg/mL]
C=C1C(=O)[C@]23C[C@H]1C[C@H](OC(C)=O)[C@H]2[C@]1(C)[C@@H](OC(C)=O)C[C@H](O)C(C)(C)[C@H]1C[C@@H]3OC(C)=O [ADENANTHIN C] | 3.3 (≈ 6.92 µM)
C=C1C(=O)[C@]23C[C@H]1C[C@H](O)[C@H]2[C@@]1(C)[C@H](C[C@@H]3OC(C)=O)C(C)(C)[C@@H](OC(C)=O)C[C@@H]1O [ADENANTHIN F] | 3.6 (≈ 8.28 µM)
C=C1C(=O)[C@]23C[C@H]1C[C@H](OC(C)=O)[C@H]2[C@]1(C)[C@@H](OC(C)=O)C[C@H](O)C(C)(C)[C@H]1[C@@H](O)[C@@H]3OC(C)=O [WEISIENSIN A] | 3.3 (≈ 6.7 µM)
